Eight compounds from ChEMBL document CHEMBL3272307, “Imidazo(1,2-c)pyrimidine nucleosides. Synthesis and biological evaluation of certain 1-(beta-D-arabinofuranosyl)imidazo(1,2-c)pyrimidines” (1976) can be followed below.

For orientation: MIC means the lowest concentration that inhibits growth of the organism. Low readings indicate inhibition by little substance, high ones a need for much substance.

The test system of test [1] is Trichophyton mentagrophytes. Description: Antimicrobial activity against Trichophyton mentagrophytes clinical isolate at 0.005 to 0.4 umol/ml after 48 hrs by broth dilution assay. Type of test: functional, organism-based.
For a further test, the system named is Human alphaherpesvirus 1. The experiment in a line: Antiviral activity against Herpes simplex virus 1 infected in human KB cells assessed as inhibition of virus induced cytopathic effects at 1 to 1000 ug/ml after 72 hrs. Type of test: functional, organism-based.
The test system of test [2] is Staphylococcus aureus. The experiment in a line: Antimicrobial activity against Staphylococcus aureus clinical isolate at 0.005 to 0.4 umol/ml after 24 hrs by broth dilution assay. It counts as functional, organism-based. In general terms: Dilution methods test growth across graded concentrations, often in twofold steps.
A further test concerns Candida albicans. The experiment in a line: Antimicrobial activity against Candida albicans clinical isolate at 0.005 to 0.4 umol/ml after 24 hrs by broth dilution assay. Type of test: functional, organism-based.
The subject of the next test is KB. The experiment in a line: Antiviral activity against Rhinovirus type 13 infected in human KB cells assessed as inhibition of virus-induced cytopathic effect at 1 to 1000 ug/ml after 72 hrs. It counts as functional, cell-based. Conditions: Human rhinovirus A13.
The next test relates to Proteus mirabilis. The experiment in a line: Antimicrobial activity against Proteus mirabilis clinical isolate at 0.005 to 0.4 umol/ml after 24 hrs by broth dilution assay. Type of test: functional, organism-based.
The subject of another test is Human respirovirus 3. Description: Antiviral activity against Parainfluenza virus type 3 infected in human KB cells assessed as inhibition of virus-induced cytopathic effect at 1 to 1000 ug/ml after 72 hrs. Type of test: functional, organism-based. In general terms: Damage to the host cells serves as the signal in cytopathic effect assays.
For another test, the system named is Escherichia coli. Description: Antimicrobial activity against Escherichia coli clinical isolate at 0.005 to 0.4 umol/ml after 24 hrs by broth dilution assay. Type of test: functional, organism-based.
The next test deals with Klebsiella pneumoniae. Description: Antimicrobial activity against Klebsiella pneumoniae clinical isolate at 0.005 to 0.4 umol/ml after 24 hrs by broth dilution assay. It counts as functional, organism-based.
Test [3] concerns Staphylococcus aureus. The experiment in a line: Antimicrobial activity against Staphylococcus aureus clinical isolate after 24 hrs by broth dilution assay. Type of test: functional.
Test [4] has as its system Trichophyton mentagrophytes. The experiment in a line: Antimicrobial activity against Trichophyton mentagrophytes clinical isolate after 48 hrs by broth dilution assay. Type of test: functional.

Values after ≈ are worked out from the molar mass of the structure shown. Active and inactive are the calls of the source. The rule behind the calls is not given here.

In the case of `O=c1nccc2n([C@@H](CO)OC(CO)CO)ccn12`, the outcome (in test [1]; in the test with Human alphaherpesvirus 1; in the test with Staphylococcus aureus [2]; with Candida albicans; in the test on KB; in the test on Proteus mirabilis) was inactive. Further, the result in the test with Human respirovirus 3, in the test with Escherichia coli and in the test with Klebsiella pneumoniae was inactive.
As for `O=c1nccc2n([C@@H]3O[C@H](CO)[C@@H](O)[C@@H]3O)ccn12`, the outcome (in test [1]; in the test with Human alphaherpesvirus 1; in the test on Staphylococcus aureus [2]; in the test on Candida albicans; with KB; with Proteus mirabilis) was inactive. For the same compound, the result in the test with Human respirovirus 3, in the test on Escherichia coli and with Klebsiella pneumoniae was inactive.
For `Nc1cc2n([C@@H]3O[C@H](COCc4ccccc4)[C@@H](OCc4ccccc4)[C@@H]3OCc3ccccc3)ccn2c(=O)n1`, the outcome with Human alphaherpesvirus 1, in the test on Candida albicans, in the test with Proteus mirabilis, in the test with Human respirovirus 3, with Escherichia coli and with Klebsiella pneumoniae was inactive. Also, the outcome with KB was Active. Also, the minimal inhibitory concentration (MIC) with Staphylococcus aureus [3] stood at 160 µM (≈ 88.4 µg/mL); in test [4], 40 µM (≈ 22.1 µg/mL).
As to `O=c1nccc2n([C@@H]3O[C@H](COCc4ccccc4)[C@@H](OCc4ccccc4)[C@@H]3OCc3ccccc3)ccn12`, the result in the test on Human alphaherpesvirus 1, with Candida albicans, in the test on Proteus mirabilis, in the test on Human respirovirus 3, in the test with Escherichia coli and in the test with Klebsiella pneumoniae was inactive. In addition, the outcome in the test with KB was Active. In addition, the minimal inhibitory concentration (MIC) in the test on Staphylococcus aureus [3] was found to be 160 µM (≈ 86 µg/mL); in test [4], 40 µM (≈ 21.5 µg/mL).
On to `Cl[C@H]1O[C@H](COCc2ccccc2)[C@@H](OCc2ccccc2)[C@@H]1OCc1ccccc1`, for which the result (in test [1]; in the test with Human alphaherpesvirus 1; in the test on Staphylococcus aureus [2]; in the test on Candida albicans; with KB; in the test on Proteus mirabilis) was inactive. Also, the outcome in the test on Human respirovirus 3, with Escherichia coli and in the test with Klebsiella pneumoniae was inactive.
Turning to `O=c1nc(Cl)cc2n([C@@H]3O[C@H](COCc4ccccc4)[C@@H](OCc4ccccc4)[C@@H]3OCc3ccccc3)ccn12`, the outcome (in test [1]; in the test on Human alphaherpesvirus 1; in the test on Staphylococcus aureus [2]; in the test on Candida albicans; with KB; in the test on Proteus mirabilis) was inactive. In addition, the outcome in the test on Human respirovirus 3, with Escherichia coli and with Klebsiella pneumoniae was inactive.
In the case of `C[Si](C)(C)Oc1nc(Cl)cc2nccn12`, the result (in [1]; in the test with Human alphaherpesvirus 1; in the test on Staphylococcus aureus [2]; in the test with Candida albicans; in the test with KB; in the test with Proteus mirabilis) was inactive. Also, the result with Human respirovirus 3, in the test on Escherichia coli and in the test with Klebsiella pneumoniae was inactive.
In the case of `Nc1cc2n([C@@H]3O[C@H](CO)[C@@H](O)[C@@H]3O)ccn2c(=O)n1`, the result (in test [1]; in the test with Human alphaherpesvirus 1; in the test with Staphylococcus aureus [2]; in the test on Candida albicans; with KB; in the test with Proteus mirabilis) was inactive. The outcome with Human respirovirus 3, in the test with Escherichia coli and in the test on Klebsiella pneumoniae was inactive.
